The nature of data set [1]: Pharmacokinetics after intravenous and oral administration in rats. It counts as in vivo. The settings on record: for Clearance (CL) after iv dosing / AUC(0-t) / half-life / Vd: dose 1 mg/kg, iv dosing; for F: oral bioavailability; for AUC(0-t) / half-life / Vd: rat, plasma; for Vd: read-out: Vss. In a few lines:
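Compounds dosed IV at 0.5, 1 or 2 mg/kg and orally at 0.5, 1, 5 or 10 mg/kg in rats, as solution, suspension or capsule formulations. Serial blood sampled out to 24 h and plasma stored frozen. Plasma levels quantified by LC/MS/MS in ESI MRM mode.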

The target in data set [2] is T1, JAK1 (h) (Homo sapiens, UniProt P23458).
T1 construct: purchased Millipore UK Ltd (contract assay service)
The experiment in a line: JAK1 (h) kinase assay. In kind it is biochemical. Here is the method: Kinase assays can be performed by measurement of incorporation of γ-^33P ATP into immobilized myelin basic protein (MBP). High binding white 384 well plates (Greiner) are coated with MBP (Sigma #M-1891) by incubation of 60 μL/well of 20 μg/mL MBP in Tris-buffered saline (TBS; 50 mM Tris pH 8.0, 138 mM NaCl, 2.7 mM KCl) for 24 h at 4° C. Plates are washed 3× with 100 μL TBS. Kinase reactions are carried out in a total volume of 34 μL in kinase buffer (according to the need to make, for example, 5 mM Hepes pH 7.6, 15 mM NaCl, 0.01% bovine gamma globulin (Sigma #1-5506), 10 mM MgCl2, 1 mM DTT, 0.02% TritonX-100). Compound dilutions are performed in DMSO and added to assay wells to a final DMSO concentration of 1%. Each data point is measured in duplicate, and at least two duplicate assays are performed for each individual compound determination. Enzyme is added to final concentrations of 10 nM or 20 nM, for example. A mixture of unlabeled ATP and γ-^33P ATP is added to start the reaction (2×10^6 cpm of γ-^33P ATP per well (3000 Ci/mmole) and 10 μM unlabeled ATP, typically. The reactions are carried out for 1 h at room temperature with shaking. Plates are washed 7× with TBS, followed by the addition of 50 µL/well scintillation fluid (Wallac). Plates are read using a Wallac Trilux counter. This is only one format of such assays; various other formats are possible, as known to one skilled in the art.
The above assay procedure can be used to determine the IC50 for inhibition and/or the inhibition constant, Ki. The IC50 is defined as the concentration of compound required to reduce the enzyme activity by 50% under the condition of the assay. The IC50 value is estimated by preparing a 10 point curve using a 1/2 log dilution series (for example, a typical curve may be prepared using the following compound concentrations: 3 μM, 1 μM, 0.3 μM, 0.1 μM, 0.03 μM, 0.01 μM, 0.003 μM, 0.001 μM, 0.0003 μM and 0 μM).
JAK1 (h) is incubated with 20 mM Tris/HCl pH 7.5, 0.2 mM EDTA, 500 μM GEEPLYWSFPAKKK, 10 mM MgAcetate and [γ-^33P-ATP] (specific activity approx. 500 cpm/pmol, concentration as required). The reaction is initiated by the addition of the MgATP mix. After incubation for 40 minutes at room temperature, the reaction is stopped by the addition of 3% phosphoric acid solution. 10 μL of the reaction is then spotted onto a P30 filtermat and washed three times for 5 minutes in 75 mM phosphoric acid and once in methanol prior to drying and scintillation counting.
The kinase assays described herein were performed at Millipore UK Ltd, Dundee Technology Park, Dundee DD2 1SW, UK.

T1 sequence (P23458 whole entry): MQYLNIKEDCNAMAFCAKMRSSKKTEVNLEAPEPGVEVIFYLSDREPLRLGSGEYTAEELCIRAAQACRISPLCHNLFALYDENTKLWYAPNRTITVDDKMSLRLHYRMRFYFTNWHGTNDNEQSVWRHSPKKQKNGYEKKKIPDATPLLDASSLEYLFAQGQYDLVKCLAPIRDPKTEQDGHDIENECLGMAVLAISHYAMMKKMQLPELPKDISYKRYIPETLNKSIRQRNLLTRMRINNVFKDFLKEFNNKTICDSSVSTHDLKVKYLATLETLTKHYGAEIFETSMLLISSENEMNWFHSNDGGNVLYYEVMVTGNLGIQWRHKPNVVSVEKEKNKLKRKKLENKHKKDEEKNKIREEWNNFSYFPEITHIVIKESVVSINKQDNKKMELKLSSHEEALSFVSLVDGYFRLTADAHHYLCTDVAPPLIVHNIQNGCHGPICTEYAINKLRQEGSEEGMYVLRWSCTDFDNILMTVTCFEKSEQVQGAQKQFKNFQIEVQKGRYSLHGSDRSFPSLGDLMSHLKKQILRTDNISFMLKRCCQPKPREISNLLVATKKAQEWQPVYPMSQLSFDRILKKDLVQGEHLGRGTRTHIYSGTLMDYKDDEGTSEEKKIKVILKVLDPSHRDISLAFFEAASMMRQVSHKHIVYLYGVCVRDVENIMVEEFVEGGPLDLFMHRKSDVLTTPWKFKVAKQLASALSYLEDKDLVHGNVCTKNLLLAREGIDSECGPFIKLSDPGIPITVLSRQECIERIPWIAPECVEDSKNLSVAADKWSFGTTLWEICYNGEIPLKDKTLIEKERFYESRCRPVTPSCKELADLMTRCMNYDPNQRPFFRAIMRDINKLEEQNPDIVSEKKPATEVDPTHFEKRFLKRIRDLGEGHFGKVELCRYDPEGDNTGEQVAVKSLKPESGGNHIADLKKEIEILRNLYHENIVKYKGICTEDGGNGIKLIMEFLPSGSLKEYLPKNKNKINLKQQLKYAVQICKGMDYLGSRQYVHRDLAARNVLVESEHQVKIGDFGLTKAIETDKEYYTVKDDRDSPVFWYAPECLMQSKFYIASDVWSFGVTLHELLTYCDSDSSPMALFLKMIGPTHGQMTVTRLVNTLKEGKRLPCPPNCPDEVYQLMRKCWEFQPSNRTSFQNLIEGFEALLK

A word on the AUC(0-t): it is the area under the concentration-time curve up to a stated or last time point. Low values mean low exposure, high ones high exposure. The half-life is the time in which the quantity being followed falls by half. Read a low half-life as rapid decline. As usually defined, the IC50 is the concentration needed to halve the response being measured. Lower therefore signals inhibition by little substance. For `CC(C)CS(=O)(=O)N[C@H]1COC2C1OC[C@H]2Nc1nc(Nc2cnn(C)c2)ncc1Cl` (stereo partly drawn) [Ex. 2, N-((3S,6R)-6-((5-chloro-2-((1-methyl-1H-pyrazol-4-yl)amino)pyrimidin-4-yl)amino)hexahydrofuro[3,2-b]furan-3-yl)-2-methylpropane-1-sulfonamide], in data set [1], the “Clearance (CL) after iv dosing” value is 18.3 mL/min/kg, the F amounted to 101.3%, the area under the curve AUC(0-t) is 908 ng·h/mL and the half-life is 69 min. The Vd in data set [1] was determined as 0.63 L/kg. For the same molecule, in data set [2], the half-maximal inhibitory concentration (IC50) amounted to 43 nM.

Take `Cn1cc(Nc2ncc(Cl)c(N[C@@H]3COC4C3OC[C@@H]4NS(=O)(=O)CC3CC3)n2)cn1` (stereo partly drawn) [Ex. 25, N-((3S,6R)-6-((5-chloro-2-((1-methyl-1H-pyrazol-4-yl)amino)pyrimidin-4-yl)amino)hexahydrofuro[3,2-b]furan-3-yl)-1-cyclopropylmethanesulfonamide]: in data set [1], the “Clearance (CL) after iv dosing” value is 30.3 mL/min/kg, the F was 84.2%, the AUC(0-t) stood at 547 ng·h/mL and the half-life is 18 min. Besides, the Vd in data set [1] turned out to be 0.83 L/kg. In data set [2], this molecule yielded an IC50 of 27 nM.

Turning to `Cn1cc(Nc2ncc(Cl)c(N[C@@H]3COC4C3OC[C@@H]4NS(=O)(=O)CC(C)(C)C#N)n2)cn1` (stereo partly drawn) [Ex. 26, N-((3S,6R)-6-((5-chloro-2-((1-methyl-1H-pyrazol-4-yl)amino)pyrimidin-4-yl)amino)hexahydrofuro[3,2-b]furan-3-yl)-2-cyano-2-methylpropane-1-sulfonamide], in data set [1], the “Clearance (CL) after iv dosing” value worked out at 37.8 mL/min/kg, the F turned out to be 62.7%, the area under the curve AUC(0-t) amounted to 442 ng·h/mL and the half-life is 35.4 min. The Vd in data set [1] was found to be 0.75 L/kg. Besides, the IC50 in data set [2] was 94 nM.

As for `Cn1cc(Nc2ncc(Cl)c(N[C@@H]3COC4C3OC[C@@H]4NS(=O)(=O)CC(F)(F)F)n2)cn1` (stereo partly drawn) [Ex. 27, N-((3S,6R)-6-((5-chloro-2-((1-methyl-1H-pyrazol-4-yl)amino)pyrimidin-4-yl)amino)hexahydrofuro[3,2-b]furan-3-yl)-2,2,2-trifluoroethanesulfonamide], in data set [1], the “Clearance (CL) after iv dosing” value is 28.8 mL/min/kg, the F came out at 66.1%, the AUC(0-t) was determined as 581 ng·h/mL and the half-life was 62.4 min. Moreover, in data set [1], the Vd was 0.85 L/kg. Besides, half-maximal inhibition in data set [2] (IC50) was put at 7 nM.

The values are drawn from US20170081338A1, “SUBSTITUTED HETEROARYL COMPOUNDS AND METHODS OF USE” (Sunshine Lake Pharma Co., Ltd., priority 2015, published 2017).
